Data on 24 molecules can be found in ChEMBL document CHEMBL1157666, “Design, synthesis and biological evaluation of thiazolidinone derivatives as potential EGFR and HER-2 kinase inhibitors” (Bioorg Med Chem, 2010).

One test deals with MCF7. Description: cells. Particulars: Homo sapiens, MCF7, 48 h.
The target of test [1] is Epidermal growth factor receptor (Homo sapiens, UniProt P00533). Description: biochemical.
Description: Inhibition of cloned EGFR autophosphorylation expressed in baculovirus-infected Sf9 cells by solid-phase ELISA
Test [2] deals with T1, Receptor tyrosine-protein kinase erbB-2 (Homo sapiens, UniProt P04626). Description: biochemical.
T1 sequence (P04626 whole entry): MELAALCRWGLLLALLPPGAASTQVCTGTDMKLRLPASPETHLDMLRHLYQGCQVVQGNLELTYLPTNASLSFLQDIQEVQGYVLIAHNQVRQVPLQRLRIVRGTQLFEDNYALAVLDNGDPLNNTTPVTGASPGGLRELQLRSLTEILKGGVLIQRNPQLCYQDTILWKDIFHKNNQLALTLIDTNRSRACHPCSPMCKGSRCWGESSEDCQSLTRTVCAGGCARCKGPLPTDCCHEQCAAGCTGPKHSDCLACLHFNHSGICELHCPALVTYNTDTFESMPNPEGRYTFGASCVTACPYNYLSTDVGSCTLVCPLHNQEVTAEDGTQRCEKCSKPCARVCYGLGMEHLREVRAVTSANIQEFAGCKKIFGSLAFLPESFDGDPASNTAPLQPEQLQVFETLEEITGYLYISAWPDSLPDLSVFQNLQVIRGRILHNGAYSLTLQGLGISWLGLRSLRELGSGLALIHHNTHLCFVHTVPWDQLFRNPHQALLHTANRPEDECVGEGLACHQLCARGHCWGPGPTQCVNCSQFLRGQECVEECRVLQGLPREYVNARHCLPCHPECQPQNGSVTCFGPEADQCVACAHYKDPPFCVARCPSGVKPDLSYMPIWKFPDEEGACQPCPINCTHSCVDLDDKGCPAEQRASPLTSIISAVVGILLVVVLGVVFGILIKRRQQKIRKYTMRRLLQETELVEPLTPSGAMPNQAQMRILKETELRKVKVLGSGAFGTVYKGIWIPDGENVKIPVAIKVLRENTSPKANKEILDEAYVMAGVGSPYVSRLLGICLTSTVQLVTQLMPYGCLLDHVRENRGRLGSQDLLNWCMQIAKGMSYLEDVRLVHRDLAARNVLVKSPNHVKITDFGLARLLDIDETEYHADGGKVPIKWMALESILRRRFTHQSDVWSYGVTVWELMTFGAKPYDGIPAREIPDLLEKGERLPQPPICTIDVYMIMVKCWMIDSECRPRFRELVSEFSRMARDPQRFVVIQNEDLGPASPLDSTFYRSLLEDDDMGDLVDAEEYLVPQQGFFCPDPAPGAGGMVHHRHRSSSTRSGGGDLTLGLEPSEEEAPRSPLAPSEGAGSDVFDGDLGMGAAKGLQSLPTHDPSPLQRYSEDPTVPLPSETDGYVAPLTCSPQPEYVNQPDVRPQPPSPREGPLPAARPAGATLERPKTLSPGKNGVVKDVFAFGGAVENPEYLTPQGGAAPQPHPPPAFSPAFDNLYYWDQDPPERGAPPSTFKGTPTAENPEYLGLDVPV
Description: (§1) Inhibition of human cloned HER2 autophosphorylation expressed in baculovirus-infected Sf9 cells by solid-phase ELISA
Test [3] deals with T1, Receptor tyrosine-protein kinase erbB-2.
Description: as §1

One may read the IC50 as the concentration that inhibits the measured activity by half. Read a high IC50 as weaker potency.

Chain of Epidermal growth factor receptor (P00533 whole entry): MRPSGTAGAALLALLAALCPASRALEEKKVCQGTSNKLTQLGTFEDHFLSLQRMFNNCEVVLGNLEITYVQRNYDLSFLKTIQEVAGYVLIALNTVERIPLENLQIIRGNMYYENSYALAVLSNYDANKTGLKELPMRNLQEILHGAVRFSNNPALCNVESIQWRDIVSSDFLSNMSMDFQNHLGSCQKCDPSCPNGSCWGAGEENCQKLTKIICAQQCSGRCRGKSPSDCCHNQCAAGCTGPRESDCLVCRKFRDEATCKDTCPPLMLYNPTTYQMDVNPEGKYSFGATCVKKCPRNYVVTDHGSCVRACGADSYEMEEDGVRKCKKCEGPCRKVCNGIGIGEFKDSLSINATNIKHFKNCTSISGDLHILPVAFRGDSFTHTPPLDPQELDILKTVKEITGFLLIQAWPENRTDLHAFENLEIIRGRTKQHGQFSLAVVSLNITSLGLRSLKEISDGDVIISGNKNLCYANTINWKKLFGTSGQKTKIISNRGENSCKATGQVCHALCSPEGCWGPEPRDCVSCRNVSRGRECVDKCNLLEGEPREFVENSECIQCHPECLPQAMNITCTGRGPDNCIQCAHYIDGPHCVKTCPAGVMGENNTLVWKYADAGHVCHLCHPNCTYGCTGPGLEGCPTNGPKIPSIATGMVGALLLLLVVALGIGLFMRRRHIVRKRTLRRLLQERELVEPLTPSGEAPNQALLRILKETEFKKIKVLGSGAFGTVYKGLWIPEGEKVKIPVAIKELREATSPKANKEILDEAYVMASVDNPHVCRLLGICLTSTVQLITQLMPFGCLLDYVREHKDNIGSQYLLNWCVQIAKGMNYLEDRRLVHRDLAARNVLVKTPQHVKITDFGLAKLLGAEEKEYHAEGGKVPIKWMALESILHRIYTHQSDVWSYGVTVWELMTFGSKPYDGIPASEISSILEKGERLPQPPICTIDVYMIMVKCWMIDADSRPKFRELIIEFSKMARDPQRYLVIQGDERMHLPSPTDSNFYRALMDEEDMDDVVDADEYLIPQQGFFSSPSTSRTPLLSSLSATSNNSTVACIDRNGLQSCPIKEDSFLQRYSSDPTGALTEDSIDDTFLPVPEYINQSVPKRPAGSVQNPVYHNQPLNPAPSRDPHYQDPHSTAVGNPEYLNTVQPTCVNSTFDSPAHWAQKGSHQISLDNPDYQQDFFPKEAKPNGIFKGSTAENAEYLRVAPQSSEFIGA

For the molecule `O=C1CSC(NN=C2CCCCCC2)=N1`, the IC50 with MCF7 was 27.6 µM; in test [1], 36 µM; in test [2] it was 47 µM.
The like results for `O=C1CSC(N/N=C/c2ccc(F)cc2)=N1` were, in that order, 1.58 µM, 2.18 µM and 3.89 µM.
The matching figures for `O=C1CSC(N/N=C/c2ccc(Cl)cc2)=N1`: 1.82 µM, 1.94 µM and 2.75 µM.
The matching figures for `O=C1CSC(N/N=C/c2cccc(Br)c2)=N1`: 2.42 µM, 7.46 µM and 10.3 µM.
As to `Cc1cccc(/C=N/NC2=NC(=O)CS2)c1`, the half-inhibitory concentration (IC50) in the test on MCF7 amounted to 8.19 µM; in test [1], 23.5 µM; in test [2], 31.8 µM.
In the case of `O=C1CSC(N/N=C/c2cc(Br)cc(Br)c2O)=N1`, the values for the IC50 (with MCF7; in test [1]; in test [2]) were 0.62 µM, 1.24 µM and 3.73 µM, respectively.
Take `O=C1CSC(N/N=C/c2ccc(O)cc2)=N1`: the values for the IC50 (in the test on MCF7; in test [1]; in test [2]) were 1.67 µM, 4.71 µM and 6.93 µM, respectively.
The matching figures for `O=C1CSC(N/N=C/c2cccc(F)c2)=N1`: 7.78 µM, 13.5 µM and 21.7 µM.
The like results for `O=C1CSC(NN=C2CCCC2)=N1` were, in that order, 38.5 µM, more than 50 µM and more than 50 µM.
On to `O=C1CSC(N/N=C/c2cccc([N+](=O)[O-])c2)=N1`, for which the values for the IC50 (with MCF7; in test [1]; in test [2]) were 12.6 µM, 26.6 µM and 37.6 µM, respectively.
The matching figures for `O=C1CSC(N/N=C/c2cccc(O)c2)=N1`: 11.8 µM, 19.3 µM and 27.8 µM.
Take `O=C1CSC(NN=C2CCC2)=N1`: the IC50 is 46.3 µM with MCF7, more than 50 µM in test [1] and more than 50 µM in test [2].
As for `O=C1CSC(NN=C2CCCCC2)=N1`, the values for the IC50 (in the test on MCF7; in test [1]; in test [2]) were 32.1 µM, 41 µM and more than 50 µM, respectively.
The matching figures for `O=C1CSC(N/N=C/c2ccc(Br)cc2)=N1`: 0.97 µM, 1.72 µM and 2.43 µM.
Consider `O=C1CSC(N/N=C/c2cccc(Cl)c2)=N1`, for which the IC50 in the test on MCF7 was found to be 4.31 µM; in test [1], 10.8 µM; in test [2], 14.3 µM.
The matching figures for `COc1cccc(/C=N/NC2=NC(=O)CS2)c1`: 9.73 µM, 31.2 µM and 45.5 µM.
For `O=C1CSC(NN=C2CCCCCCC2)=N1`, the 50% inhibitory concentration (IC50) with MCF7 amounted to 18.4 µM; in test [2], 31 µM.
Turning to `O=C1CSC(N/N=C/c2cc(Br)ccc2O)=N1`, the IC50 was determined as 0.42 µM in test [3] and 0.06 µM in the test with MCF7.
On to `O=C1CSC(N/N=C/c2cc(Cl)ccc2O)=N1`, for which the IC50 was 0.18 µM with MCF7, 0.56 µM in test [1] and 1.78 µM in test [2].
In the case of `O=C1CSC(N/N=C/c2cc(Cl)cc(Cl)c2O)=N1`, the IC50 in the test on MCF7 was determined as 1.56 µM; in test [1], 1.46 µM; in test [2], 4.51 µM.
On to `Cc1ccc(/C=N/NC2=NC(=O)CS2)cc1`, for which the figures for the IC50 (with MCF7; in test [2]) were 2.05 µM and 5.83 µM, respectively.
Regarding `COc1ccc(/C=N/NC2=NC(=O)CS2)cc1`, the IC50 turned out to be 3.16 µM in the test with MCF7, 5.78 µM in test [1] and 9.17 µM in test [2].
The like results for `O=C1CSC(N/N=C/c2cc(F)ccc2O)=N1` were, in that order, 0.27 µM, 0.97 µM and 3.59 µM.
In the case of `O=C1CSC(N/N=C/c2ccc([N+](=O)[O-])cc2)=N1`, the IC50 in the test on MCF7 was determined as 2.77 µM; in test [1], 6.82 µM; in test [2], 8.46 µM.
